Measured values: article PMC5743546 (Biochemistry, 2017)
Like-named read-outs stand apart in the source and are kept apart here. Each block holds one molecule with its values, some of them ahead of it.

Columns and labels:
[1] = target: T1, CYP2J2 (Homo sapiens, UniProt P51589); experiment: biochemical; conditions: for y0 (residual rate of AA epoxidation at maximum inhibition): fit to eq S1
T1 sequence (P51589 1-502): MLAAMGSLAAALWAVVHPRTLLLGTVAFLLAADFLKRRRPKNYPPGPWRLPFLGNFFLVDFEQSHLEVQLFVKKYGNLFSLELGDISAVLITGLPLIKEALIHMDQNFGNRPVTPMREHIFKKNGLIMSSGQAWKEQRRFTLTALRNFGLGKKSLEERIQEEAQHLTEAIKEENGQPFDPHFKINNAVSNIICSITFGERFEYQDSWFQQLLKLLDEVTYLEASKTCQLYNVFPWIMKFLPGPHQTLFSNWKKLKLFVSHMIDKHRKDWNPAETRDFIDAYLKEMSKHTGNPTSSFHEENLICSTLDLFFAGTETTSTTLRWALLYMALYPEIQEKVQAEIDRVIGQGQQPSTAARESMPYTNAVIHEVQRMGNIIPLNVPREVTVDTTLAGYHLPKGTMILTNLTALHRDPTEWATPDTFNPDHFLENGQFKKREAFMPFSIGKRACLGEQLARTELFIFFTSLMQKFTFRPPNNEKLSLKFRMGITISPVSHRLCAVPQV

[2] = target: T1, CYP2J2
[3] = target: T1, CYP2J2; format: binding
[4] = target: T1, CYP2J2; remark: listed apart in the source
[5] = cited from earlier work
[6] = target: T1, CYP2J2; experiment: DOX metabolism kinetics by CPR and CYP2J2; conditions: none detected by LC-MS/MS analysis
[7] = target: T1, CYP2J2; experiment: CYP2J2-mediated ebastine; format: biochemical
[8] = substrate: COc1cccc2c1C(=O)c1c(O)c3c(c(O)c1C2=O)C[C@@](O)(C(=O)CO)C[C@@H]3O[C@H]1C[C@H](N)[C@H](O)[C@H](C)O1; experiment: purified protein, by the assay type; conditions: other: CPR with CYP2J2; hyperbolic curve

Molecule: COc1cccc2c1C(=O)c1c(O)c3c(c(O)c1C2=O)C[C@@](O)(C(=O)CO)C[C@@H]3O[C@H]1C[C@H](N)[C@H](O)[C@H](C)O1 [DOX, doxorubicin]
plasma levels upon immediate exposure [5]: 1000 to 10000 nM
toxic cumulative dose [5]: ~ 50 μM
IC50 [1]: 5.48 ± 0.04 µM
Ki [1]: 3.11 ± 0.02 µM
enzyme activity retained in the presence of saturating amounts ([1]; 100 μM AA): 23%
y0 (residual rate of AA epoxidation at maximum inhibition) ([1]; 100 μM AA): 19.8 ± 3.8 pmol (min)^−1 (nmolCYP2J2)^−1
Kd [3]: 5.32 ± 0.89 µM
r0 (intrinsic polarization value) ([3]; 1 μM DOX or 7-de-aDOX, 37°C, with 100 μM AA or 60 μM EBS where indicated): 0.083 ± 0.007
r1 (maximum polarization value) ([3]; 1 μM DOX or 7-de-aDOX, one-site fit): 0.219 ± 0.010
metabolism by CYP2J2 to form new products (in words) [6]: does not metabolize
IC50 [7]: 17.9 µM
Ki [7]: 8.97 ± 0.01 µM
y0 (residual rate of EBS metabolism) ([7]; 20 μM EBS, fit to eq S1): 5.87 ± 2.84

Molecule: COc1cccc2c1C(=O)c1c(O)c3c(c(O)c1C2=O)C[C@@](O)(/C(C)=N/NC(=O)c1ccccc1)C[C@@H]3O[C@H]1C[C@H](N)[C@H](O)[C@H](C)O1 [ZRN, zorubicin]
IC50 [1]: 6.46 ± 0.03 µM
Ki [1]: 3.67 ± 0.02 µM
change in the regioselectivity of AA epoxidation (in words) ([1]; 100 μM AA, 0–50 μM anthracycline): not a significant change
y0 (residual rate of AA epoxidation at maximum inhibition) ([1]; 100 μM AA): 18.7 ± 3.5 pmol (min)^−1 (nmolCYP2J2)^−1

B1: CYP2J2 (Homo sapiens) (protein)
chain: MLAAMGSLAAALWAVVHPRTLLLGTVAFLLAADFLKRRRPKNYPPGPWRLPFLGNFFLVDFEQSHLEVQLFVKKYGNLFSLELGDISAVLITGLPLIKEALIHMDQNFGNRPVTPMREHIFKKNGLIMSSGQAWKEQRRFTLTALRNFGLGKKSLEERIQEEAQHLTEAIKEENGQPFDPHFKINNAVSNIICSITFGERFEYQDSWFQQLLKLLDEVTYLEASKTCQLYNVFPWIMKFLPGPHQTLFSNWKKLKLFVSHMIDKHRKDWNPAETRDFIDAYLKEMSKHTGNPTSSFHEENLICSTLDLFFAGTETTSTTLRWALLYMALYPEIQEKVQAEIDRVIGQGQQPSTAARESMPYTNAVIHEVQRMGNIIPLNVPREVTVDTTLAGYHLPKGTMILTNLTALHRDPTEWATPDTFNPDHFLENGQFKKREAFMPFSIGKRACLGEQLARTELFIFFTSLMQKFTFRPPNNEKLSLKFRMGITISPVSHRLCAVPQV
Km [8]: 10.4 ± 1.6 µM

Next, values leading:

IC50 [1]: 27.4 ± 0.03 µM
Ki [1]: 15.6 ± 0.02 µM
Molecule: COc1cccc2c1C(=N)c1c(O)c3c(c(O)c1C2=O)C[C@@](O)(C(C)=O)C[C@@H]3O[C@H]1C[C@H](N)[C@H](O)[C@H](C)O1 [5-IDN, 5-iminodaunorubicin]

IC50 [1]: 10.2 ± 0.1 µM
Ki [1]: 5.78 ± 0.03 µM
NADPH oxidation on addition of CYP2J2 (in words) [2]: does not increase
Kd [3]: 13.1 ± 1.1 µM
metabolism by CYP2J2 to form new products (in words) [4]: does not metabolize
Molecule: COc1cccc2c1C(=O)c1c(O)c3c(c(O)c1C2=O)CC(O)(C(=O)CO)CC3 (stereo not drawn) [7-de-aDOX, 7-deoxydoxorubicin aglycone]

Ki [3]: > 200 µM
inhibition of DOX binding to CYP2J2 (in words) ([3]; 100 μM AA, 1 μM DOX): weakly inhibits
Molecule: CCCCC/C=C\C/C=C\C/C=C\C/C=C\CCCC(=O)O [AA, arachidonic acid]
